Test results published in ChEMBL document CHEMBL3576796, “A Broad Anti-influenza Hybrid Small Molecule That Potently Disrupts the Interaction of Polymerase Acidic Protein-Basic Protein 1 (PA-PB1) Subunits” (J Med Chem, 2015).
Converted amounts (≈) assume the structure as drawn. The source made the active and inactive calls. The calls are words filed in the database; no cut-off is given here.

Assays:
[1] = Cytotoxicity against human HEK293T cells assessed as decrease in cell viability by MTT assay; type: cell-based, HEK-293T
[2] = molecular target: PA/PB1 (Influenza A virus (A/Puerto Rico/8/1934(H1N1)), UniProt P03431+P03433)
[3] = Cytotoxicity against MDCK cells assessed as decrease in cell viability by MTT assay; type: cell-based, Canis lupus familiaris; details: dog
Liver microsome = assay: Metabolic stability in human liver microsomes assessed as cytochrome-mediated metabolism after 30 mins by HPLC-MS/MS analysis; type: ADME; details: 0.5 h
Influenza A virus [4] = type: functional, organism-based; details: A/Puerto Rico/8/1934(H1N1), MDCK, 48 h
[5] = Antiviral activity against Influenza A virus A/Wisconsin/67/05 (H3N2) assessed as reduction in plaque formation after 48 hrs by plaque reduction assay; type: functional, Influenza A virus (A/Wisconsin/67/2005(H3N2))
Influenza A virus [6] = type: functional, organism-based; details: A/Puerto Rico/8/1934(H1N1), MDCK, 48 h; remark: listed apart in the source
Influenza B virus [7] = assay: Antiviral activity against Influenza B virus B/Bangladesh/333/07 assessed as reduction in plaque formation after 48 hrs by plaque reduction assay; type: functional, organism-based; details: B/Bangladesh/333/07, 48 h
[8] = Equilibrium solubility of the compound in phosphate buffer at pH 7.4 after 1 hr; type: physicochemical
[9] = Permeability of the compound assessed as membrane drug retention after 18 hrs by PAMPA assay; type: physicochemical; set-up: concentration or dose not given beside the values
Influenza B virus [10] = assay: Antiviral activity against Influenza B virus B/Malaysia/2506/04 assessed as reduction in plaque formation after 48 hrs by plaque reduction assay; type: functional; details: B/Malaysia/2506/2004, 48 h
Influenza B virus [11] = assay: Antiviral activity against Influenza B virus B/Lee/40 assessed as reduction in plaque formation after 48 hrs by plaque reduction assay; type: functional, organism-based; details: B/Lee/1940, 48 h
[12] = Antiviral activity against Influenza A virus A/Solomon Island/3/06 (H1N1) assessed as reduction in plaque formation after 48 hrs by plaque reduction assay; type: functional, Influenza A virus (A/Solomon Islands/3/2006(H1N1))
[13] = Permeability of the compound assessed as passive diffusion from donor compartment to acceptor compartment after 18 hrs by PAMPA assay; type: physicochemical; details: read-out: Peff
Influenza A virus [14] = type: functional, organism-based; details: A/Puerto Rico/8/1934(H1N1), HEK-293T, 50 uM
Influenza A virus [15] = type: functional, organism-based; details: A/Puerto Rico/8/1934(H1N1), HEK-293T, 50 uM; remark: listed apart in the source
Influenza A virus [16] = type: functional, organism-based; details: A/Puerto Rico/8/1934(H1N1), HEK-293T, 50 uM; remark: listed apart in the source
Influenza A virus [17] = type: functional, organism-based; details: A/Puerto Rico/8/1934(H1N1), HEK-293T, 50 uM; remark: listed apart in the source

SMILES	CC50 [1] [µM]	IC50 [2] [µM]	CC50 [3] [µM]	Drug metabolism (Liver microsome)	EC50 (Influenza A virus [4]) [µM]	other results
CC1=CC(c2ccccc2)n2nc(NC(=O)c3ccc4ccccc4c3)nc2N1 (centres undefined)	154	> 200	> 115	metabolite_notdetected	41	–
CC1=CC(c2ccccc2)n2nc(NC(=O)c3ccccc3)nc2N1 (centres undefined)	> 250	100	> 250	metabolite_notdetected	100	–
Cc1cc(-c2ccccc2)nc2nc(C(=O)Nc3ccccc3)nn12	> 250	128	> 250	metabolite_notdetected	40	–
Cc1cc(-c2ccccc2)n2nc(NC(=O)c3ccccc3)nc2n1	> 250	> 200	> 250	metabolite_notdetected	> 100	–
CC1=CC(c2ccccc2)n2nc(NC(=O)c3ccc(Oc4ccccc4)cc3)nc2N1 (centres undefined)	73	156	> 180	metabolite_notdetected	59	–
O=[N+]([O-])c1ccc(Oc2ccc(-n3cc(CO)nn3)cc2)c2nonc12	40	35	–	–	1	–
CCCCc1ccc(C(=O)Nc2nc3n(n2)C(c2ccccc2)C=C(C)N3)cc1 (centres undefined)	> 250	48	> 250	metabolite_notdetected	100	–
CCCOc1ccc(C(=O)Nc2nc3nc(-c4ccccc4)cc(C)n3n2)cc1	52	158	> 247	metabolite_notdetected	> 100	–
CC1=CC(c2ccccc2)n2nc(NC(=O)CCc3ccccc3)nc2N1 (centres undefined)	223	100	> 250	metabolite_notdetected	> 100	–
CCCCOc1ccc(C(=O)Nc2nc3n(n2)C(c2ccccc2)C=C(C)N3)cc1 (centres undefined)	> 250	37	> 196	metabolite_notdetected	100	–
N#CC(c1ccc(Cl)cc1)c1c(Cl)cc(-n2ncc(=O)[nH]c2=O)cc1Cl (centres undefined) [DICLAZURIL]	–	–	–	–	31	–
CCCOc1ccc(C(=O)Nc2nc3nc(C)cc(-c4ccccc4)n3n2)cc1	95	> 200	> 72	metabolite_notdetected	> 100	–
CC1=CC(c2ccccc2)n2nc(NC(=O)c3ccc([N+](=O)[O-])cc3)nc2N1 (centres undefined)	> 250	75	> 250	metabolite_notdetected	> 100	–
CC1=CC(c2ccccc2)n2nc(NC(=O)c3ccc(OC(C)C)cc3)nc2N1 (centres undefined)	> 250	75	> 250	metabolite_notdetected	> 100	–
COC(=O)C1=C(N)N(c2cccc(Cl)c2C)C2=C(C(=O)CCC2)C1c1ccc2c(c1)OCO2 (centres undefined)	> 1000	30.4	–	–	12.2	–
CCc1oc2ccccc2c1C(=O)c1cc(Br)c(O)c(Br)c1 [BENZBROMARONE]	–	–	–	–	39	–
NC(=O)c1c(NC(=O)c2nc3nc(-c4ccccc4)cc(C(F)(F)F)n3n2)sc2c1CCCC2	> 250	7.5	–	–	–	–
CC1=CC(c2ccccc2)n2nc(NC(=O)c3ccccc3F)nc2N1 (centres undefined)	> 250	185	> 250	metabolite_notdetected	> 100	–
CC1=CC(c2ccccc2)n2nc(NC(=O)c3ccc(F)cc3)nc2N1 (centres undefined)	190	138	> 250	metabolite_notdetected	> 100	–

SMILES	CC50 [1] [µM]	IC50 [2] [µM]	CC50 [3] [µM]	Drug metabolism (Liver microsome)	EC50 (Influenza A virus [4]) [µM]	other results
CC1=CC(c2ccccc2)n2nc(NC(=O)c3cccc(F)c3)nc2N1 (centres undefined)	220	156	> 250	metabolite_notdetected	> 100	–
CCOc1ccc(C(=O)Nc2nc3n(n2)C(c2ccccc2)C=C(C)N3)cc1 (centres undefined)	237	139	> 250	metabolite_notdetected	100	–
CC1=CC(c2ccccc2)n2nc(NC(=O)c3ccc(-c4ccccc4)cc3)nc2N1 (centres undefined)	155	> 200	> 193	metabolite_notdetected	28	–
COc1ccc(C(=O)Nc2nc3nc(-c4ccccc4)cc(C)n3n2)cc1	109	150	> 250	metabolite_notdetected	> 100	–
NC(=O)c1c(NC(=O)c2cnn3c(C(F)F)cc(-c4ccccc4)nc23)sc2c1CCC2	> 1000	25.4	–	–	–	–
CCCOc1ccc(C(=O)Nc2nc3n(n2)C(c2ccccc2)C=C(C)N3)cc1 (centres undefined)	> 250	40	> 230	metabolite_notdetected	47	EC50 [5]: 37 µM; EC50 (Influenza A virus [6]): 47 µM; EC50 (Influenza B virus [7]): 27 µM; solubility thermodynamic at 1 h [8]: 0.013 mg/mL (≈ 33.4 µM); Activity [9]: 41%; EC50 (Influenza B virus [10]): 32 µM; EC50 (Influenza B virus [11]): 51 µM; EC50 [12]: 27 µM; Papp at 18 h [13]: 29.3 nm/s
Cc1cc(-c2ccccc2)n2nc(C(=O)Nc3ccccc3)nc2n1	110	160	> 250	metabolite_notdetected	42	–
COc1ccc(C(=O)Nc2nc3nc(C)cc(-c4ccccc4)n3n2)cc1	187	> 200	> 250	metabolite_notdetected	86	–
COc1cccc(C(=O)Nc2nc3n(n2)C(c2ccccc2)C=C(C)N3)c1 (centres undefined)	230	175	> 250	metabolite_notdetected	> 100	–
Cc1cc(-c2ccccc2)n2nc(C(=O)Nc3sc4c(c3C(N)=O)CCCCC4)nc2n1	> 250	1.1	> 250	metabolite_notdetected	21	EC50 [5]: 7 µM; Activity (Influenza A virus [14]): Active; EC50 (Influenza A virus [6]): 21 µM; EC50 (Influenza B virus [7]): 11 µM; solubility thermodynamic at 1 h [8]: 0.013 mg/mL (≈ 29.1 µM); Activity (Influenza A virus [15]): Active; Activity [9]: 45%; EC50 (Influenza B virus [10]): 17 µM; EC50 (Influenza B virus [11]): 24 µM; EC50 [12]: 23 µM; Activity (Influenza A virus [16]): Active; Papp at 18 h [13]: 6.1 nm/s; Activity (Influenza A virus [17]): inactive
COc1ccccc1C(=O)Nc1nc2n(n1)C(c1ccccc1)C=C(C)N2 (centres undefined)	240	> 200	> 250	metabolite_notdetected	> 100	–
COc1ccc(C(=O)Nc2nc3n(n2)C(c2ccccc2)C=C(C)N3)cc1 (centres undefined)	> 250	153	> 240	metabolite_notdetected	> 100	solubility thermodynamic at 1 h [8]: 0.013 mg/mL (≈ 36 µM); Activity [9]: 57%; Papp at 18 h [13]: 35.2 nm/s
NC(=O)c1ncn([C@@H]2O[C@H](CO)[C@@H](O)[C@H]2O)n1 [RIBAVIRIN]	> 250	–	> 250	–	–	–
Nc1ccc(O)c2c1C(=O)c1c(N)ccc(O)c1C2=O	> 250	20.3	–	–	14.5	–
CSCC[C@H](N)C(=O)N[C@@H](CC(=O)O)C(=O)N[C@H](C(=O)N[C@@H](CC(N)=O)C(=O)N1CCC[C@H]1C(=O)N[C@H](C(=O)N[C@@H](CC(C)C)C(=O)N[C@@H](CC(C)C)C(=O)N[C@@H](Cc1ccccc1)C(=O)N[C@@H](CC(C)C)C(=O)N[C@@H](CCCCN)C(=O)N[C@H](C(=O)N1CCC[C@H]1C(=O)N[C@@H](C)C(=O)N[C@@H](CCC(N)=O)C(=O)O)C(C)C)[C@@H](C)O)C(C)C	> 100	–	–	–	–	–
CC1=CC(c2ccccc2)n2nc(NC(=O)c3ccc(Cl)cc3)nc2N1 (centres undefined)	> 250	95	> 250	metabolite_notdetected	> 100	–
Cc1cc(-c2ccccc2)nc2nc(C(=O)Nc3sc4c(c3C(N)=O)CCCCC4)nn12	> 250	28	> 250	metabolite_notdetected	49	EC50 [5]: 14 µM; EC50 (Influenza A virus [6]): 8 µM; EC50 (Influenza B virus [7]): 12 µM; Activity [9]: 99%; EC50 (Influenza B virus [10]): 11 µM; EC50 (Influenza B virus [11]): 5 µM; EC50 [12]: 16 µM
Cc1cc(-c2ccccc2)nc2nc(NC(=O)c3ccccc3)nn12	196	26	> 250	metabolite_notdetected	25	EC50 [5]: 24 µM; EC50 (Influenza A virus [6]): 25 µM; EC50 (Influenza B virus [7]): 34 µM; solubility thermodynamic at 1 h [8]: 0.013 mg/mL (≈ 39.5 µM); Activity [9]: 2%; EC50 (Influenza B virus [10]): 36 µM; EC50 (Influenza B virus [11]): 25 µM; EC50 [12]: 27 µM; Papp at 18 h [13]: 54.9 nm/s
